Test [1] concerns the target T1, Adenosine receptor A1 (Homo sapiens) (UniProt P30542).
T1 sequence (whole entry): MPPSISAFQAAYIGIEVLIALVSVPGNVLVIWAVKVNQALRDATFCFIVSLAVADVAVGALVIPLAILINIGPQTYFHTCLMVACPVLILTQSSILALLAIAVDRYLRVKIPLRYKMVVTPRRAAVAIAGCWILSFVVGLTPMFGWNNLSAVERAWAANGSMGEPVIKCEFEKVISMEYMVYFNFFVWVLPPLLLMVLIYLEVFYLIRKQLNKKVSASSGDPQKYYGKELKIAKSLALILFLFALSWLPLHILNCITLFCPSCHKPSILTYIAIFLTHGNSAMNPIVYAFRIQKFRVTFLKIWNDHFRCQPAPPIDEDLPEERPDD
In words: Allosteric enhancer activity at human adenosine A1 receptor expressed in CHO cells assessed as inhibition of forskolin-induced cAMP production at 10 uM. The format is functional, cell-based. On the technique in general: Changes in cAMP serve as a functional read-out for many G protein-coupled receptors.

Test [2] has as its target T1, Adenosine receptor A1 (Homo sapiens). In words: Allosteric enhancer activity at human adenosine A1 receptor expressed in CHO cells assessed as inhibition of forskolin-induced cAMP production at 100 nM in presence of 1 pM CCPA. The format is functional, cell-based.
The target is the same in test [3]. Briefly: Displacement of [3H]DPCPX from human adenosine A1 receptor expressed in CHO cell membranes at 10 uM. Background: Displacement assays read how much labelled ligand stays bound in the presence of the test substance.
Test [4] deals with Adenosine receptor A2a (Homo sapiens) (UniProt P29274). Briefly: Displacement of [3H]ZM241385 from human adenosine A2A receptor expressed in CHO cell membranes at 10 uM.
Adenosine receptor A2a (Homo sapiens), sequence (P29274 whole entry): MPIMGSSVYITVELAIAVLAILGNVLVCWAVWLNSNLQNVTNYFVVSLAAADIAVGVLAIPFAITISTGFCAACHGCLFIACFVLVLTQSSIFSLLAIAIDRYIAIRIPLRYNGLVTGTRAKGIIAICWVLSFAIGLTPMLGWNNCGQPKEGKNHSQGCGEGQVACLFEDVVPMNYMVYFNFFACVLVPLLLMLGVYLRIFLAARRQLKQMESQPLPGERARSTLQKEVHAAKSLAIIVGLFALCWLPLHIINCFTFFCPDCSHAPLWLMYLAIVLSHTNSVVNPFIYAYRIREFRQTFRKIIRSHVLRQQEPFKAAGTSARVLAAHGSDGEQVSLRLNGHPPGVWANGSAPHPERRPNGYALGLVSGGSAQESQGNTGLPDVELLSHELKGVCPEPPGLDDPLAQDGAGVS
In test [5] the target is T2, Adenosine receptor A3 (Homo sapiens) (UniProt P0DMS8).
T2 sequence (whole entry): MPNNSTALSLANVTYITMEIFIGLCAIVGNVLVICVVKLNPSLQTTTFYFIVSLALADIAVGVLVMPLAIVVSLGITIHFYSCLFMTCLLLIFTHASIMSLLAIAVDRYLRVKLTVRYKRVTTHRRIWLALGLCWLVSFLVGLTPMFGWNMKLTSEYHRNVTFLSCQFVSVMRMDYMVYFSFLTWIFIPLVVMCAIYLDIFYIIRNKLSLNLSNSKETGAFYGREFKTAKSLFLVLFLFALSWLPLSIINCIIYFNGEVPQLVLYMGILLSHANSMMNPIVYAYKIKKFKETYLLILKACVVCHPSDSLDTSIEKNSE
Briefly: Displacement of [3H]MRE-3008-F20 from human adenosine 3 receptor expressed in CHO cell membranes at 10 uM.

Test [6] has as its target T1, Adenosine receptor A1 (Homo sapiens). Briefly: Allosteric enhancer activity at human adenosine A1 receptor expressed in CHO cell membranes assessed as shift in [3H]CCPA Bmax level at 10 uM by saturation binding assay.
Test [7] has the same target. In words: Allosteric enhancer activity at human adenosine A1 receptor expressed in CHO cell membranes assessed as shift in CCPA binding Ki level at 10 uM by [3H]DPCPX competition binding assay.

Where only a bound is given, the exact number is not on record here.

We go through 26 compounds from ChEMBL document CHEMBL3352551, “Synthesis and biological evaluation of novel allosteric enhancers of the A1 adenosine receptor based on 2-amino-3-(4'-chlorobenzoyl)-4-substituted-5-arylethynyl thiophene” (J Med Chem, 2014).

One may read the inhibition as the share of the control response that was lost under treatment.

For `COc1ccc(C#Cc2sc(N)c(C(=O)c3ccc(Cl)cc3)c2CC(C)(C)C)cc1OC`, the inhibition is 72% in test [1]; 74% in test [2]; below 15% in test [3]; below 15% in test [4]; below 15% in test [5]. Besides, the fold change (FC) came out at 7.1 in test [6] and 6.8 in test [7].
Turning to `CC(C)(C)Cc1c(CCc2ccccc2)sc(N)c1C(=O)c1ccc(Cl)cc1`, the inhibition in test [1] is 40%; in test [2], 41%; in test [3] it was below 15%; in test [4], below 15%; in test [5], below 15%. Further, the fold change (FC) in test [6] worked out at 3.3; in test [7], 3.5.
For `Nc1sc(C#Cc2ccccc2)c(-c2ccccc2)c1C(=O)c1ccc(Cl)cc1`, the inhibition is 24% in test [1]; 25% in test [2]; below 15% in test [3]; below 15% in test [4]; below 15% in test [5]. Besides, the fold change (FC) in test [6] was 1.9; in test [7], 1.5.
On to `Nc1sc(C#Cc2ccccc2)c(CN2CCN(c3ccc(F)cc3)CC2)c1C(=O)c1ccc(Cl)cc1`, for which the inhibition was 37% in test [1]; 38% in test [2]; below 15% in test [3]; below 15% in test [4]; below 15% in test [5]. The fold change (FC) in test [6] and in test [7] was 3.9 each time.
Regarding `CC(C)(C)Cc1c(C#Cc2ccsc2)sc(N)c1C(=O)c1ccc(Cl)cc1`, the inhibition in test [1] is 60%; in test [2] it was 63%; in test [3] it was below 15%; in test [4] it was below 15%; in test [5] it was below 15%. The fold change (FC) was 5.7 in test [6] and 3.9 in test [7].
`Cc1cc(C)c(C#Cc2sc(N)c(C(=O)c3ccc(Cl)cc3)c2CC(C)(C)C)cc1C`: the inhibition in test [1] was 68%; in test [2], 67%; in test [3], below 15%; in test [4], below 15%; in test [5], below 15%. Also, the fold change (FC) is 7 in test [6] and 7.5 in test [7].
Regarding `Nc1sc(CCc2ccccc2)c(-c2ccccc2)c1C(=O)c1ccc(Cl)cc1`, the inhibition was 25% in test [1]; 24% in test [2]; below 15% in test [3]; below 15% in test [4]; below 15% in test [5]. The fold change (FC) in test [6] came to 2.2; in test [7] it was 1.6.
For `Nc1sc(C#Cc2ccccc2)c(CN2CCN(c3ccc(Cl)c(C(F)(F)F)c3)CC2)c1C(=O)c1ccc(Cl)cc1`, the inhibition in test [1] was 30%; in test [2], 36%; in test [3] it was below 15%; in test [4], below 15%; in test [5], below 15%. Also, the fold change (FC) in test [6] worked out at 2.7; in test [7], 2.4.
For `Nc1sc(C#Cc2ccccc2)c(CN2CCN(c3ccccc3)CC2)c1C(=O)c1ccc(Cl)cc1`, the inhibition in test [1] was 29%; in test [2] it was 31%; in test [3], below 15%; in test [4] it was below 15%; in test [5], below 15%. Further, the fold change (FC) in test [6] and in test [7] was 2.8 in each case.
Take `Nc1sc(-c2ccccc2)c(CN(C2CCCCC2)C2CCCCC2)c1C(=O)c1ccc(Cl)cc1`: the fold change (FC) in test [6] was 3.5; in test [7] it was 3.2.
For the compound `Nc1sc(CCc2ccccc2)cc1C(=O)c1ccc(Cl)cc1`, the inhibition was 22% in test [1]; 20% in test [2]; below 15% in test [3]; below 15% in test [4]; below 15% in test [5]. Further, the fold change (FC) in test [6] turned out to be 1.7; in test [7], 1.3.
Regarding `COc1ccc(-c2sc(N)c(C(=O)c3ccc(Cl)cc3)c2CC(C)(C)C)cc1`, the fold change (FC) was 6.1 in test [6] and 4.3 in test [7].
As to `Cc1ccc(CCc2sc(N)c(C(=O)c3ccc(Cl)cc3)c2CC(C)(C)C)cc1`, the inhibition in test [1] is 43%; in test [2], 45%; in test [3] it was below 15%; in test [4], below 15%; in test [5], below 15%. Further, the fold change (FC) in test [6] was found to be 5; in test [7], 3.8.
Consider `CCCCCc1ccc(C#Cc2sc(N)c(C(=O)c3ccc(Cl)cc3)c2CC(C)(C)C)cc1`, for which the inhibition was 60% in test [1]; 62% in test [2]; below 15% in test [3]; below 15% in test [4]; below 15% in test [5]. In addition, the fold change (FC) in test [6] came to 5.5; in test [7], 3.7.
Consider `Nc1sc(-c2ccccc2)c(CN2CCN(c3ccccc3)CC2)c1C(=O)c1ccc(Cl)cc1`, for which the fold change (FC) amounted to 11.5 in test [6] and 8.3 in test [7].
Consider `Nc1sc(C#Cc2ccccc2)c(CN2CCN(c3ccc(C(F)(F)F)cc3)CC2)c1C(=O)c1ccc(Cl)cc1`, for which the inhibition in test [1] was 31%; in test [2], 33%; in test [3], below 15%; in test [4] it was below 15%; in test [5], below 15%. In addition, the fold change (FC) in test [6] came out at 2.9; in test [7], 3.
`Cc1ccc(C#Cc2sc(N)c(C(=O)c3ccc(Cl)cc3)c2CC(C)(C)C)cc1`: the inhibition in test [1] is 70%; in test [2] it was 73%; in test [3], below 15%; in test [4], below 15%; in test [5] it was below 15%. Besides, the fold change (FC) in test [6] was determined as 7.2; in test [7], 7.5.
Turning to `CC(C)(C)Cc1c(C#CC2CCCCC2)sc(N)c1C(=O)c1ccc(Cl)cc1`, the inhibition in test [1] was 67%; in test [2], 71%; in test [3], below 15%; in test [4], below 15%; in test [5] it was below 15%. The fold change (FC) in test [6] is 8; in test [7] it was 4.8.
On to `Nc1sc(C#Cc2ccccc2)c(CN2CCN(c3ccc(Cl)cc3)CC2)c1C(=O)c1ccc(Cl)cc1`, for which the inhibition in test [1] was 35%; in test [2], 35%; in test [3] it was below 15%; in test [4] it was below 15%; in test [5] it was below 15%. The results for the fold change (FC) in test [6] and in test [7] were 3.4 and 3.6, respectively.
Regarding `Nc1sc(C#Cc2ccccc2)c(CN2CCN(c3ccc(Cl)c(Cl)c3)CC2)c1C(=O)c1ccc(Cl)cc1`, the inhibition in test [1] is 22%; in test [2] it was 24%; in test [3], below 15%; in test [4], below 15%; in test [5] it was below 15%. Also, the fold change (FC) worked out at 2.1 in test [6] and 1.7 in test [7].
As for `CC(C)(C)Cc1c(-c2ccccc2)sc(N)c1C(=O)c1ccc(Cl)cc1`, the fold change (FC) in test [6] was determined as 6.9; in test [7], 4.8.
In the case of `Nc1sc(C#Cc2ccccc2)cc1C(=O)c1ccc(Cl)cc1`, the inhibition is 20% in test [1]; 25% in test [2]; below 15% in test [3]; below 15% in test [4]; below 15% in test [5]. The fold change (FC) amounted to 2 in test [6] and 1.5 in test [7].
For `Cc1ccc(C)c(C#Cc2sc(N)c(C(=O)c3ccc(Cl)cc3)c2CC(C)(C)C)c1`, the inhibition is 62% in test [1]; 66% in test [2]; below 15% in test [3]; below 15% in test [4]; below 15% in test [5]. Also, the fold change (FC) in test [6] worked out at 6.2; in test [7] it was 4.
Take `Cc1ccc(C#Cc2sc(N)c(C(=O)c3ccc(Cl)cc3)c2C)cc1`: the inhibition in test [1] was 31%; in test [2], 36%; in test [3], below 15%; in test [4], below 15%; in test [5] it was below 15%. Also, the fold change (FC) in test [6] came out at 2.3; in test [7], 1.7.
As to `Cc1c(C#Cc2ccccc2)sc(N)c1C(=O)c1ccc(Cl)cc1`, the inhibition was 27% in test [1]; 34% in test [2]; below 15% in test [3]; below 15% in test [4]; below 15% in test [5]. For the same compound, the fold change (FC) in test [6] turned out to be 2.5; in test [7], 1.5.
For `Cc1ccc(-c2sc(N)c(C(=O)c3ccc(Cl)cc3)c2CC(C)(C)C)cc1`, the fold change (FC) in test [6] came out at 6.4; in test [7], 6.
